Reference: the kinase profiling compilation of Christmann-Franck et al. (2016)
Values belong to the compound of their own block, whether it stands above or below them.

Legend:
Test in all cases: KINOMEscan competition binding
ABL1 (human) = ABL1 (human) (UniProt P00519)
[1] = target: ABL1 (human), P00519 [H396P]
[2] = target: ABL1 (human), P00519 [M351T]
[3] = target: ABL1 (human), P00519 [T315I]
[4] = target: ABL1 (human), P00519 [Y253F]
ABL2 (human) = ABL2 (human) (UniProt P42684)
BTK (human) = BTK (human) (UniProt Q06187)
CAMK1 (human) = CAMK1 (human) (UniProt Q14012)
CAMK2G (human) = CAMK2G (human) (UniProt Q13555)
CAMKK1 (human) = CAMKK1 (human) (UniProt Q8N5S9)
CLK3 (human) = CLK3 (human) (UniProt P49761)
CSK (human) = CSK (human) (UniProt P41240)
EPHA5 (human) = EPHA5 (human) (UniProt P54756)
EPHA7 (human) = EPHA7 (human) (UniProt Q15375)
EPHA8 (human) = EPHA8 (human) (UniProt P29322)
FGFR1 (human) = FGFR1 (human) (UniProt P11362)
FGFR2 (human) = FGFR2 (human) (UniProt P21802)
FGFR3 (human) = FGFR3 (human) (UniProt P22607)
FGR (human) = FGR (human) (UniProt P09769)
FLT4 (human) = FLT4 (human) (UniProt P35916)
FYN (human) = FYN (human) (UniProt P06241)
INSR (human) = INSR (human) (UniProt P06213)
LCK (human) = LCK (human) (UniProt P06239)
MAP3K4 (human) = MAP3K4 (human) (UniProt Q9Y6R4)
MAP3K5 (human) = MAP3K5 (human) (UniProt Q99683)
NEK2 (human) = NEK2 (human) (UniProt P51955)
NTRK1 (human) = NTRK1 (human) (UniProt P04629)
PAK1 (human) = PAK1 (human) (UniProt Q13153)
PAK4 (human) = PAK4 (human) (UniProt O96013)
PAK6 (human) = PAK6 (human) (UniProt Q9NQU5)
PAK7 (human) = PAK7 (human) (UniProt Q9P286)
PDGFRB (human) = PDGFRB (human) (UniProt P09619)
PHKG1 (human) = PHKG1 (human) (UniProt Q16816)
PIM1 (human) = PIM1 (human) (UniProt P11309)
PKMYT1 (human) = PKMYT1 (human) (UniProt Q99640)
PRKAA1 (human) = PRKAA1 (human) (UniProt Q13131)
PRKACA (human) = PRKACA (human) (UniProt P17612)
PTK2 (human) = PTK2 (human) (UniProt Q05397)
RPS6KA3 KD1 (human) = RPS6KA3 KD1 (human) (UniProt P51812)
STK17B (human) = STK17B (human) (UniProt O94768)
TEK (human) = TEK (human) (UniProt Q02763)
TNK2 (human) = TNK2 (human) (UniProt Q07912)

Chain of FGR (human) (P09769 whole entry, looked up): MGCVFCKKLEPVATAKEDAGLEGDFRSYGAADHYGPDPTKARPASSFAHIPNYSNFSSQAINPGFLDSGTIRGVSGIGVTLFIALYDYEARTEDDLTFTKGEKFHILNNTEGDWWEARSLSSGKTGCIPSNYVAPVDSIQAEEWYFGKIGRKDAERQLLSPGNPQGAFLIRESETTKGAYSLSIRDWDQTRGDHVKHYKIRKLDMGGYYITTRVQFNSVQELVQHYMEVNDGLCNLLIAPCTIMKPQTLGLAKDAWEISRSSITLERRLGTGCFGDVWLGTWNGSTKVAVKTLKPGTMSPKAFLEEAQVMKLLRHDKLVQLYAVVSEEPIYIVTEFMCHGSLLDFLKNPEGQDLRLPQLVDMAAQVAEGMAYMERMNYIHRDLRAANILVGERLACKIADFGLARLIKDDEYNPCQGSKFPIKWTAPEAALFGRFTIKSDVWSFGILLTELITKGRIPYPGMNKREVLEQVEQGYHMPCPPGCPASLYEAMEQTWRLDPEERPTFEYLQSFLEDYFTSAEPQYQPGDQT
Chain of CAMK1 (human) (Q14012 whole entry, looked up): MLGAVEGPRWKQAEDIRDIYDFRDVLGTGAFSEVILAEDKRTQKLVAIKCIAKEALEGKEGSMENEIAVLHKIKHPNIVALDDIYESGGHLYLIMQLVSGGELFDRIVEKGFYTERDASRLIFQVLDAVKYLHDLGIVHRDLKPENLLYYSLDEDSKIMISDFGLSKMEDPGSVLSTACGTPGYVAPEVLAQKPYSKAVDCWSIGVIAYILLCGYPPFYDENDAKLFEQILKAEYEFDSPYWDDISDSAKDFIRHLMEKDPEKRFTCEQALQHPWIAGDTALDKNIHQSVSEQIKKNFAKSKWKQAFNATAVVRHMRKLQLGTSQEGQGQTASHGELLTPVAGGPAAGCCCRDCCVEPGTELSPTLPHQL
Chain of PAK1 (human) (Q13153 whole entry, looked up): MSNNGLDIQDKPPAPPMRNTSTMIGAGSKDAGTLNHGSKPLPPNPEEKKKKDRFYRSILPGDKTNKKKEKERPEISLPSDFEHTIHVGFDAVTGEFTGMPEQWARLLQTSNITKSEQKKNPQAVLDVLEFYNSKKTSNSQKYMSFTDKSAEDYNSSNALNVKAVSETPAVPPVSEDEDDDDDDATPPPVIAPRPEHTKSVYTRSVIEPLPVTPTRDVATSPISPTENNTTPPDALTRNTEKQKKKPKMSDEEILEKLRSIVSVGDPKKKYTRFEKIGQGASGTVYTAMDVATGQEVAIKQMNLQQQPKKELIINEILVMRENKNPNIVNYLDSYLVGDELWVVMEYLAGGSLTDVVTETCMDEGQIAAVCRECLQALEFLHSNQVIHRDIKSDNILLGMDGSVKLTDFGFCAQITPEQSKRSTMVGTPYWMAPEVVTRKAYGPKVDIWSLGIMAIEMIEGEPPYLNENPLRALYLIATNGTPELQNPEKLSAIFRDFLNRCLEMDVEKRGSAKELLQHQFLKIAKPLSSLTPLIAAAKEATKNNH
Chain of BTK (human) (Q06187 whole entry, looked up): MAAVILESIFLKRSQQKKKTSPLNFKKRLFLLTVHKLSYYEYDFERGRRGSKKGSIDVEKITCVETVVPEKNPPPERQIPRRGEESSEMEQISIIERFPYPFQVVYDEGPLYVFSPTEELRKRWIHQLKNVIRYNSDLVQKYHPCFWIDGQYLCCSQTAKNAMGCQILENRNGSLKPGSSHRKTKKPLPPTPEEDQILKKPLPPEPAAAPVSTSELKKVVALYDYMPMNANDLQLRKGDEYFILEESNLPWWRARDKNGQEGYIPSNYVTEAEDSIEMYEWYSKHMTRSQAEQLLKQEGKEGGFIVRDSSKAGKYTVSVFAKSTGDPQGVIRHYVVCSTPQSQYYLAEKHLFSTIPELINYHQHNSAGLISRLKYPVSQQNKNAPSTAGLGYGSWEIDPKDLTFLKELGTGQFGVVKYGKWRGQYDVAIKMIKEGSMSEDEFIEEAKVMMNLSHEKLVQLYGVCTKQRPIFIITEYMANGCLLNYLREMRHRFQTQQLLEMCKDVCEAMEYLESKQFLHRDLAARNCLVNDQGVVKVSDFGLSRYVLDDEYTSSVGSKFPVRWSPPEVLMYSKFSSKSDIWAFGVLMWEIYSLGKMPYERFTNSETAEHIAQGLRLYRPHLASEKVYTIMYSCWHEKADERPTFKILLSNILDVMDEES
Chain of STK17B (human) (O94768 whole entry, looked up): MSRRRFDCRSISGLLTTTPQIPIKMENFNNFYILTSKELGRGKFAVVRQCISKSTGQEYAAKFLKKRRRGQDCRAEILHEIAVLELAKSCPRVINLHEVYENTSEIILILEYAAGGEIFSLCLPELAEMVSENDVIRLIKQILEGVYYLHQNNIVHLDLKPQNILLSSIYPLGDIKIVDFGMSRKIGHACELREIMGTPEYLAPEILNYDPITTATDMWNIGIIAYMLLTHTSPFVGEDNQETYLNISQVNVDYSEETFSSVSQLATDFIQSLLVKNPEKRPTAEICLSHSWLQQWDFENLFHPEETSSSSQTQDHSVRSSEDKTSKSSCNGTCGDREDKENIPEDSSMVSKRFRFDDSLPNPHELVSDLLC
Chain of FYN (human) (P06241 whole entry, looked up): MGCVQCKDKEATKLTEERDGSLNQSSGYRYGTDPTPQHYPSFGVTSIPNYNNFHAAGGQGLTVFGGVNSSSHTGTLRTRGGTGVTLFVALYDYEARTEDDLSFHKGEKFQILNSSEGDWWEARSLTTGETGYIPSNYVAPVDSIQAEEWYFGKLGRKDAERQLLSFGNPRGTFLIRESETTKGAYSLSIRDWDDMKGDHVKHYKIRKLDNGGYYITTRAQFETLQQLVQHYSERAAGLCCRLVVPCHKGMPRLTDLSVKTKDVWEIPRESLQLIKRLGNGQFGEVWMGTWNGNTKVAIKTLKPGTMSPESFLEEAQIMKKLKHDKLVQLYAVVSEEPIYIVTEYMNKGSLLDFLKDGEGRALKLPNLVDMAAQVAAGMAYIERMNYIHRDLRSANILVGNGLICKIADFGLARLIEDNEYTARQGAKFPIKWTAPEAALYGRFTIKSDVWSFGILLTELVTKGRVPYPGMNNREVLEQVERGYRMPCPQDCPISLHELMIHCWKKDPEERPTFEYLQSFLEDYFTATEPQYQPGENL
Chain of TEK (human) (Q02763 whole entry, looked up): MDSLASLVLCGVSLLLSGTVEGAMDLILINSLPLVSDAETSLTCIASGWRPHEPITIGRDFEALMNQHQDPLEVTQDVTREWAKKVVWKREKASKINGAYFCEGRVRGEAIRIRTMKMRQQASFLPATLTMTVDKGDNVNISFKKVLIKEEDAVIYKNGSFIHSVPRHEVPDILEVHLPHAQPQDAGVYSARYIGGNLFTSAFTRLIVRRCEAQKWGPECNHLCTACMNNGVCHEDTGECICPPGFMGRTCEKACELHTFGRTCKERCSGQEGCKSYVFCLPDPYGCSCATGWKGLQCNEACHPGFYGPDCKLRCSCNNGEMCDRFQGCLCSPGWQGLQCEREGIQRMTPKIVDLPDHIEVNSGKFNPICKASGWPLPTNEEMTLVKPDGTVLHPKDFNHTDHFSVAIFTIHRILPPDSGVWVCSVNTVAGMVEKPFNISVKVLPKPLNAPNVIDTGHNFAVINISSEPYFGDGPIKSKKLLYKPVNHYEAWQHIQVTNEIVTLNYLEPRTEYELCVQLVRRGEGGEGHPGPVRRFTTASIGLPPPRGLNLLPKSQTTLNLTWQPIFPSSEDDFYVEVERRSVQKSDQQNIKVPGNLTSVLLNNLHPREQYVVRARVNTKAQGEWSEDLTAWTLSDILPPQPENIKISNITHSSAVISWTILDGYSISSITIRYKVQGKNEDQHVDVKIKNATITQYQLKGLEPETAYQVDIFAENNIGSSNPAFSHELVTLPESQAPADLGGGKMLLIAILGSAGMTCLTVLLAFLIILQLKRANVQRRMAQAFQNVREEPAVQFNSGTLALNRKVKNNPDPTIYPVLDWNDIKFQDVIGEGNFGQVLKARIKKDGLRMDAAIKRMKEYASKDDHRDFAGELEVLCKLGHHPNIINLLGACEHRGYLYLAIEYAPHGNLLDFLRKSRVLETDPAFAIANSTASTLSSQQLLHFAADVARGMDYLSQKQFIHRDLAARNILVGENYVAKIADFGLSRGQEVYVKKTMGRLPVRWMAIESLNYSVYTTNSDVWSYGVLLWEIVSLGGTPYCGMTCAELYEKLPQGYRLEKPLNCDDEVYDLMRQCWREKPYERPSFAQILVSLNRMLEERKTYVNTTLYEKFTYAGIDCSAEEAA
Chain of LCK (human) (P06239 whole entry, looked up): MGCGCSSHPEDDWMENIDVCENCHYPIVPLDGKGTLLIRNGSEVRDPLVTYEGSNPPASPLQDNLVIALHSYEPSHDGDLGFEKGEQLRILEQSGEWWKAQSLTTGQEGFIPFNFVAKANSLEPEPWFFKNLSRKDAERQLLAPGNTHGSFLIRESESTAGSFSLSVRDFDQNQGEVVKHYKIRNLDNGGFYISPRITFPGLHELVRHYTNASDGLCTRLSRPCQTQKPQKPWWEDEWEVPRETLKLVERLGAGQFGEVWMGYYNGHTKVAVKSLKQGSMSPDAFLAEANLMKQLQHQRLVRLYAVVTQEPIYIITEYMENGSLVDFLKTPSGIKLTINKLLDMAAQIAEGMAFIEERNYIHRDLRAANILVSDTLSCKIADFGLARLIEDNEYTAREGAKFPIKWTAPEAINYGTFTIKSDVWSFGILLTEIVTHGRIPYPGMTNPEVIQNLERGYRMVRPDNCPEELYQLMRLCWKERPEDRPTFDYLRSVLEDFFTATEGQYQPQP
Chain of PIM1 (human) (P11309 whole entry, looked up): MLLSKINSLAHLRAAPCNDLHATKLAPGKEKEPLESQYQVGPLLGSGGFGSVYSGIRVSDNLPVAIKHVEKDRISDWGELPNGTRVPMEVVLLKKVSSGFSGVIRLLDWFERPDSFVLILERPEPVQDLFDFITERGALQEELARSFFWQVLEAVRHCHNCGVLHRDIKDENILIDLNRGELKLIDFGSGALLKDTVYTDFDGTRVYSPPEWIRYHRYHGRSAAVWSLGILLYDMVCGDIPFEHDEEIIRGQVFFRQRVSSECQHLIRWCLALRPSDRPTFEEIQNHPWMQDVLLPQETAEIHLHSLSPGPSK

Structure (SMILES): Oc1ccc(-c2nc(-c3ccc(F)cc3)c(-c3ccncc3)[nH]2)cc1
Kd (ABL1 (human)): > 10 µM
Kd [1]: > 10 µM
Kd [2]: > 10 µM
Kd [3]: > 10 µM
Kd [4]: > 10 µM
Kd (ABL2 (human)): > 10 µM
Kd (BTK (human)): > 10 µM
Kd (CAMK1 (human)): > 10 µM
Kd (CAMK2G (human)): > 10 µM
Kd (CAMKK1 (human)): > 10 µM
Kd (CLK3 (human)): > 10 µM
Kd (CSK (human)): > 10 µM
Kd (EPHA5 (human)): > 10 µM
Kd (EPHA7 (human)): > 10 µM
Kd (EPHA8 (human)): > 10 µM
Kd (FGFR1 (human)): > 10 µM
Kd (FGFR2 (human)): > 10 µM
Kd (FGFR3 (human)): > 10 µM
Kd (FGR (human)): > 10 µM
Kd (FLT4 (human)): > 10 µM
Kd (FYN (human)): > 10 µM
Kd (INSR (human)): > 10 µM
Kd (LCK (human)): > 10 µM
Kd (MAP3K4 (human)): > 10 µM
Kd (MAP3K5 (human)): > 10 µM
Kd (NEK2 (human)): > 10 µM
Kd (NTRK1 (human)): > 10 µM
Kd (PAK1 (human)): > 10 µM
Kd (PAK4 (human)): > 10 µM
Kd (PAK6 (human)): > 10 µM
Kd (PAK7 (human)): > 10 µM
Kd (PDGFRB (human)): > 10 µM
Kd (PHKG1 (human)): > 10 µM
Kd (PIM1 (human)): > 10 µM
Kd (PKMYT1 (human)): > 10 µM
Kd (PRKAA1 (human)): > 10 µM
Kd (PRKACA (human)): > 10 µM
Kd (PTK2 (human)): > 10 µM
Kd (RPS6KA3 KD1 (human)): > 10 µM
Kd (STK17B (human)): > 10 µM
Kd (TEK (human)): > 10 µM
Kd (TNK2 (human)): > 10 µM

Kd (ABL1 (human)): > 10 µM
Kd [1]: > 10 µM
Kd [2]: > 10 µM
Kd [3]: > 10 µM
Kd [4]: > 10 µM
Kd (ABL2 (human)): > 10 µM
Kd (BTK (human)): > 10 µM
Kd (CAMK1 (human)): > 10 µM
Kd (CAMK2G (human)): > 10 µM
Kd (CAMKK1 (human)): > 10 µM
Kd (CLK3 (human)): > 10 µM
Kd (CSK (human)): > 10 µM
Kd (EPHA5 (human)): > 10 µM
Kd (EPHA7 (human)): > 10 µM
Kd (EPHA8 (human)): > 10 µM
Kd (FGFR1 (human)): > 10 µM
Kd (FGFR2 (human)): 1.9 µM
Kd (FGFR3 (human)): > 10 µM
Kd (FGR (human)): > 10 µM
Kd (FLT4 (human)): > 10 µM
Kd (FYN (human)): > 10 µM
Kd (INSR (human)): > 10 µM
Kd (LCK (human)): > 10 µM
Kd (MAP3K4 (human)): > 10 µM
Kd (MAP3K5 (human)): > 10 µM
Kd (NEK2 (human)): > 10 µM
Kd (NTRK1 (human)): > 10 µM
Kd (PAK1 (human)): > 10 µM
Kd (PAK4 (human)): > 10 µM
Kd (PAK6 (human)): > 10 µM
Kd (PAK7 (human)): > 10 µM
Kd (PDGFRB (human)): > 10 µM
Kd (PHKG1 (human)): > 10 µM
Kd (PIM1 (human)): > 10 µM
Kd (PKMYT1 (human)): > 10 µM
Kd (PRKAA1 (human)): > 10 µM
Kd (PRKACA (human)): > 10 µM
Kd (PTK2 (human)): > 10 µM
Kd (RPS6KA3 KD1 (human)): > 10 µM
Kd (STK17B (human)): > 10 µM
Kd (TEK (human)): > 10 µM
Kd (TNK2 (human)): > 10 µM
Structure (SMILES): O=C1c2ccccc2-c2n[nH]c3cccc1c23
